From patent publication US20060269621A1, “Novel therapeutic extracts and molecules for degenerative conditions” (Avestha Gengraine Technologies Pvt.Ltd., priority 2003, published 2006)

Tests used:
3T3-L1 adipocytes [1] = experiment: Standardization / validation of [3H]-glucose uptake 3T3-L1 assay with insulin and glitazone; type: cell-based; settings: 48 hrs
3T3-L1 adipocytes [2] = experiment: as above; type: cell-based; settings: for [3H]-glucose uptake with insulin: in cpm (unit assumed); for Counts with insulin: insulin alone control
Protocol: In the first set of assays (insulin control and the first 9 samples) cells were grown in 96 well plates, and assayed for 3H-deoxyglucose uptake. Briefly cells were treated with plant extract overnight and immediately before the assay got washed with Krebs-Ringer-HEPES Buffer [20 mM HEPES, pH 7.4, 136 mM NaCl, 4.7 mM KCl, 1.5 mM MgSO4] at 37° C. for 30 minutes and then treated with insulin. Glucose uptake reaction was initiated by adding 0.1 mM deoxy-glucose containing deoxy-tritiated-glucose containing 12.2 kBq/mL. After 30 minutes of 37° C. incubation, the reaction was terminated by adding 40 uM cytochalasin-B. Cells were washed 3× with ice cold KRH buffer and solubilized with 100 μl of 10% Triton-X with Ca/Mg free PBS. Radioactivity incorporated into cells was measured on a top count microplate scintillation counter. Results are being interpreted as mean±SD of counts per minute.
As the basal counts were low, the assay design was changed to a 24-well format and the cell numbers increased from 100,000 cells per well to 2 million cells per well.
The two controls in this experiment were: (a) [^3H]-deoxyglucose uptake by cells in the absence of both insulin and plant extracts, and (b) [^3H]-deoxyglucose uptake by cells in the presence of insulin and absence of plant extracts.

Molecule | Counts per minute (3T3-L1 adipocytes [1]; Glitazone 60 μg) [Counts per minute] | Counts per minute (3T3-L1 adipocytes [1]; Glitazone 300 μg) [Counts per minute] | Counts per minute (3T3-L1 adipocytes [2]; Glitazone 150 μg, 48 hrs) [Counts per minute] | [3H]-glucose uptake with insulin (3T3-L1 adipocytes [2]; 100,000 cells/well, Insulin 1 nM) | [3H]-glucose uptake with insulin (3T3-L1 adipocytes [2]; 100,000 cells/well, Insulin 10 nM) | [3H]-glucose uptake with insulin (3T3-L1 adipocytes [2]; 100,000 cells/well, Insulin 100 nM) | [3H]-glucose uptake with insulin (3T3-L1 adipocytes [2]; 2,000,000 cells/well, Insulin 10 nM) | [3H]-glucose uptake with insulin (3T3-L1 adipocytes [2]; 2,000,000 cells/well, Insulin 25 nM) | [3H]-glucose uptake with insulin (3T3-L1 adipocytes [2]; 2,000,000 cells/well, Insulin 100 nM) | Counts per minute (3T3-L1 adipocytes [2]; Insulin 25 nM, 15 min) [Counts per minute] | Counts per minute (3T3-L1 adipocytes [2]; Insulin 25 nM, 30 min) [Counts per minute] | Counts per minute (3T3-L1 adipocytes [2]; Insulin 25 nM, 60 min) [Counts per minute] | [3H]-deoxyglucose uptake, Counts per minute (3T3-L1 adipocytes [2]; control: cells + insulin, no plant extract) [Counts per minute] | Counts with insulin (3T3-L1 adipocytes [2]; Table 15, first of two value columns) [Counts per minute] | Counts with insulin (3T3-L1 adipocytes [2]; Table 15, second of two value columns) [Counts per minute]
O=C1NC(=O)C(Cc2ccc(O)cc2)S1 (stereo not drawn) [Glitazone] | 7886 | 47971.9 | 15900.4 |  |  |  |  |  |  |  |  |  |  |  | 
Insulin |  |  |  | 60.5 | 502 | 1850 | 36562 | 38538 | 55258 | 48026.7 | 24699.9 | 28103.3 | 36561 | 33065.1 | 32352.28
